Assay results as given in patent publication US20140051576A1, “ACTIVE COMPOUND COMBINATIONS COMPRISING A (THIO)CARBOXAMIDE DERIVATIVE AND AN INSECTICIDAL OR ACARICIDAL OR NEMATICIDAL ACTIVE COMPOUND” (priority 2011, published 2014).
Read-outs that look alike come from different tables or passages of the source.

Tests used:
Tetranychus urticae = Tetranychus urticae - Test; OP-resistant (TETRUR spray application); type: in vivo
Description: Tetranychus urticae—Test; OP-Resistant (TETRUR Spray Application)
French beans (Phaseolus vulgaris) which are heavily infested with all stages of the two spotted spidermite (Tetranychus urticae), are sprayed with a preparation of the active ingredient at the desired concentration.

Myzus persicae = Myzus persicae - Test (MYZUPE spray application); type: in vivo
Description: Myzus persicae—Test; (MYZUPE Spray Application)
Chinese cabbage (Brassica pekinesis) leaf—disks infected with all instars of the green peach aphid (Myzus persicae), are sprayed with a preparation of the active ingredient at the desired concentration.
100% means that all aphids have been killed; 0% means that none of the aphids have been killed.

Spodoptera frugiperda = experiment: whole plant or invertebrate
Method: Spodoptera frugiperda—Test (SPODFR Spray Application)
Solvent: 78.0 parts by weight acetone • 1.5 parts by weight N,N-dimethylformamide Emulsifier: 0.5 parts by weight alkylarylpolyglycolether
Maize (Zea mais) leaf sections are sprayed with a preparation of the active ingredient of the desired concentration. Once dry, the leaf sections are infested with larvae of the fall armyworm (Spodoptera frugiperda).
After the specified period of time, the mortality in % is determined. 100% means that all caterpillars have been killed and 0% means that none of the caterpillars have been killed.

Phaedon cochleariae = Phaedon cochleariae Larvae - Test (PHAECO spray application); type: in vivo
Description: Phaedon cochleariae—Test; (PHAECO Spray Application)
Solvent: 78 parts by weight of acetone • 1.5 parts by weight of N,N-dimethylformamide Emulsifier: 0.5 parts by weight of alkylarylpolyglycolether
Once dry, the leaf discs are infested with mustard beetle larvae (Phaedon cochleariae).

[1] = Tetranychus urticae, 48 h, read-out: Mortality in % after 2 days obs.
[2] = Myzus persicae, 144 h, read-out: Mortality in % after 6 days obs.
[3] = Spodoptera frugiperda, 144 h, read-out: Mortality in % after 6 days obs.
[4] = Phaedon cochleariae, 144 h, read-out: Mortality in % after 6 days obs.
[5] = Tetranychus urticae, 144 h, read-out: Mortality in % after 6 days obs.
[6] = Myzus persicae, 24 h, read-out: Mortality in % after 1 day obs.
[7] = Spodoptera frugiperda, 48 h, read-out: Mortality in % after 2 days obs.
[8] = Phaedon cochleariae, 48 h, read-out: Mortality in % after 2 days obs.
[9] = 100 g/ha, single active ingredient, 6 days
[10] = 0.8 g/ha, single active ingredient, 6 days
[11] = 4 g/ha, single active ingredient, 6 days

Cc1c(F)c(F)c(COC(=O)[C@@H]2[C@H](/C=C(\Cl)C(F)(F)F)C2(C)C)c(F)c1F (racemic) [B-3A.43, Tefluthrin]
mortality at 20 g/ha (Tetranychus urticae; [1]): 0% | mortality at 4 g/ha (Myzus persicae; [2]): 0% | mortality at 0.8 g/ha (Spodoptera frugiperda; [3]): 0% | mortality at 4 g/ha (Spodoptera frugiperda; [3]): 0% | mortality at 20 g/ha (Phaedon cochleariae; [4]): 0%

CC(C)c1ccccc1CN(C(=O)c1c(C(F)F)nn(C)c1F)C1CC1 [A-1, N-cyclopropyl-3-(difluoromethyl)-5-fluoro-N-(2-isopropylbenzyl)-1-methyl-1H-pyrazole-4-carboxamide]
mortality at 100 g/ha (Tetranychus urticae; [1]): 0% | mortality at 100 g/ha (Tetranychus urticae; [5]): 0% | mortality at 100 g/ha (Myzus persicae; [6]): 0% | mortality at 100 g/ha (Myzus persicae; [2]): 0% | mortality at 100 g/ha (Spodoptera frugiperda; [7]): 0% | mortality at 100 g/ha (Spodoptera frugiperda; [3]): 0% | mortality at 100 g/ha (Phaedon cochleariae; [8]): 0% | mortality at 100 g/ha (Phaedon cochleariae; [4]): 0%

CC(C)c1ccc(Cl)cc1CN(C(=O)c1c(C(F)F)nn(C)c1F)C1CC1 [A-5, N-(5-chloro-2-isopropylbenzyl)-N-cyclopropyl-3-(difluoromethyl)-5-fluoro-1-methyl-1H-pyrazole-4-carboxamide]
mortality at 200 g/ha (Tetranychus urticae; Tetranychus urticae, 144 h, 200 g/ha, single active ingredient, 6 days, read-out: Mortality in % after 6 days obs.): 0% | mortality at 100 g/ha (Myzus persicae; Myzus persicae, 24 h, 100 g/ha, read-out: Mortality in % after 1 day obs.): 0% | mortality at 200 g/ha (Myzus persicae; Myzus persicae, 24 h, 200 g/ha, read-out: Mortality in % after 1 day obs.): 0% | mortality at 100 g/ha (Myzus persicae; Myzus persicae, 144 h, 100 g/ha, read-out: Mortality in % after 6 days obs.): 0% | mortality at 200 g/ha (Myzus persicae; Myzus persicae, 144 h, 200 g/ha, read-out: Mortality in % after 6 days obs.): 0% | mortality at 100 g/ha (Spodoptera frugiperda; [7]): 0% | mortality at 200 g/ha (Spodoptera frugiperda; [7]): 0% | mortality at 100 g/ha (Spodoptera frugiperda; [3]): 0% | mortality at 200 g/ha (Spodoptera frugiperda; [3]): 0% | mortality at 100 g/ha (Phaedon cochleariae; Phaedon cochleariae, 48 h, 100 g/ha, read-out: Mortality in % after 2 days obs.): 0% | mortality at 150 g/ha (Phaedon cochleariae; Phaedon cochleariae, 48 h, 150 g/ha, read-out: Mortality in % after 2 days obs.): 0% | mortality at 100 g/ha (Phaedon cochleariae; Phaedon cochleariae, 144 h, 100 g/ha, read-out: Mortality in % after 6 days obs.): 0% | mortality at 200 g/ha (Phaedon cochleariae; Phaedon cochleariae, 144 h, 200 g/ha, read-out: Mortality in % after 6 days obs.): 0%

CC(C)c1ccc(F)cc1CN(C(=O)c1c(C(F)F)nn(C)c1F)C1CC1 [A-7, N-cyclopropyl-3-(difluoromethyl)-5-fluoro-N-(5-fluoro-2-isopropylbenzyl)-1-methyl-1H-pyrazole-4-carboxamide]
mortality at 100 g/ha (Tetranychus urticae; [1]): 0% | mortality at 150 g/ha (Tetranychus urticae; [1]): 0% | mortality at 200 g/ha (Tetranychus urticae; [1]): 0% | mortality at 100 g/ha (Myzus persicae; [6]): 0% | mortality at 200 g/ha (Myzus persicae; [6]): 0% | mortality at 100 g/ha (Myzus persicae; [2]): 0% | mortality at 200 g/ha (Myzus persicae; [2]): 0% | mortality at 100 g/ha (Spodoptera frugiperda; [7]): 0% | mortality at 150 g/ha (Spodoptera frugiperda; [7]): 0% | mortality at 100 g/ha (Spodoptera frugiperda; [3]): 0% | mortality at 100 g/ha (Phaedon cochleariae; [8]): 0% | mortality at 150 g/ha (Phaedon cochleariae; [8]): 0% | mortality at 100 g/ha (Phaedon cochleariae; [4]): 0% | mortality at 200 g/ha (Phaedon cochleariae; [4]): 0%

CNC(=O)O/N=C/C(C)(C)SC [B-1A.2, Aldicarb]
Mortality in % after 6 days obs. (Myzus persicae; 20 g/ha): 80% | Mortality in % after 1 day obs. (Myzus persicae; 100 g/ha): 0% | Mortality in % after 2 days obs. (Spodoptera frugiperda; 100 g/ha): 0% | Mortality in % after 6 days obs. (Spodoptera frugiperda; 100 g/ha): 33% | Mortality in % after 6 days obs. (Phaedon cochleariae; 100 g/ha): 0%

CS/C(C)=N\OC(=O)N(C)SN(C)C(=O)O/N=C(\C)SC [B-1A.21, Thiodicarb]
Mortality in % after 6 days obs. (Tetranychus urticae; [9]): 0% | Mortality in % after 6 days obs. (Myzus persicae; 100 g/ha): 0% | Mortality in % after 6 days obs. (Spodoptera frugiperda; 4 g/ha): 0% | Mortality in % after 6 days obs. (Spodoptera frugiperda; 20 g/ha): 33%

CC1(C)[C@H](/C=C(\Cl)C(F)(F)F)[C@@H]1C(=O)O[C@@H](C#N)c1cccc(Oc2ccccc2)c1 [B-3A.12, L-Cyhalothrin]
Mortality in % after 2 days obs. (Tetranychus urticae; 0.16 g/ha): 0% | Mortality in % after 2 days obs. (Tetranychus urticae; 0.8 g/ha): 70% | Mortality in % after 6 days obs. (Tetranychus urticae; [10]): 70% | Mortality in % after 6 days obs. (Spodoptera frugiperda; 0.8 g/ha): 83% | Mortality in % after 2 days obs. (Phaedon cochleariae; 0.8 g/ha): 67%

CN1COCN(Cc2cnc(Cl)s2)/C1=N\[N+](=O)[O-] [B-4A.7, Thiamethoxam]
mortality at 20 g/ha (Tetranychus urticae; [1]): 0% | mortality at 4 g/ha (Tetranychus urticae; [5]): 0% | mortality at 4 g/ha (Myzus persicae; [6]): 0% | mortality at 0.8 g/ha (Myzus persicae; [2]): 70% | mortality at 0.8 g/ha (Phaedon cochleariae; [4]): 0%

N#CCNC(=O)c1cnccc1C(F)(F)F [B-9.2, Flonicamid]
Mortality in % after 6 days obs. (Tetranychus urticae; [9]): 0% | Mortality in % after 1 day obs. (Myzus persicae; 20 g/ha): 0% | Mortality in % after 6 days obs. (Myzus persicae; 20 g/ha): 80% | Mortality in % after 6 days obs. (Phaedon cochleariae; 20 g/ha): 0%

CCOC(=O)OC1=C(c2cc(C)ccc2C)C(=O)N[C@]12CC[C@@H](OC)CC2 [B-23B.1, Spirotetramat]
mortality at 4 g/ha (Tetranychus urticae; [1]): 0% | mortality at 20 g/ha (Tetranychus urticae; [1]): 0% | mortality at 0.8 g/ha (Tetranychus urticae; [5]): 70% | mortality at 4 g/ha (Myzus persicae; [2]): 70% | mortality at 20 g/ha (Myzus persicae; [2]): 70% | mortality at 20 g/ha (Spodoptera frugiperda; [3]): 0%

CNC(=O)c1cc(Cl)cc(C)c1NC(=O)c1cc(Br)nn1-c1ncccc1Cl [B-26.1, Chlorantraniliprole (Rynaxypyr)]
Mortality in % after 6 days obs. (Myzus persicae; 0.8 g/ha): 0% | Mortality in % after 6 days obs. (Phaedon cochleariae; 0.8 g/ha): 33% | Mortality in % after 2 days obs. (Phaedon cochleariae; 4 g/ha): 50% | Mortality in % after 6 days obs. (Phaedon cochleariae; 4 g/ha): 33%

CC(c1ccc(C(F)(F)F)nc1)S(C)(=O)=NC#N (centres unmarked) [B-27.27, Sulfoxaflor]
mortality at 4 g/ha (Tetranychus urticae; [5]): 0% | mortality at 0.8 g/ha (Myzus persicae; [6]): 0% | mortality at 4 g/ha (Myzus persicae; [6]): 0% | mortality at 4 g/ha (Phaedon cochleariae; [4]): 33%

Abamectin [B-6.1]
Mortality in % after 2 days obs. (Tetranychus urticae; 0.8 g/ha): 70% | Mortality in % after 6 days obs. (Phaedon cochleariae; 0.16 g/ha): 33%

Ethiprole [B-2B.1]
Mortality in % after 6 days obs. (Myzus persicae; 100 g/ha): 0%

Flubendiamide [B-26.3]
Mortality in % after 6 days obs. (Tetranychus urticae; [9]): 0% | Mortality in % after 2 days obs. (Spodoptera frugiperda; 100 g/ha): 67% | Mortality in % after 6 days obs. (Phaedon cochleariae; 4 g/ha): 0% | Mortality in % after 6 days obs. (Phaedon cochleariae; 20 g/ha): 50%

Imidacloprid [B-4A.4]
Mortality in % after 6 days obs. (Tetranychus urticae; [11]): 0% | Mortality in % after 1 day obs. (Myzus persicae; 0.8 g/ha): 0% | Mortality in % after 1 day obs. (Myzus persicae; 4 g/ha): 70% | Mortality in % after 1 day obs. (Myzus persicae; 20 g/ha): 80% | Mortality in % after 6 days obs. (Phaedon cochleariae; 100 g/ha): 67%

Methiocarb [B-1A15]
Mortality in % after 6 days obs. (Tetranychus urticae; [9]): 10% | Mortality in % after 2 days obs. (Tetranychus urticae; 500 g/ha): 0% | Mortality in % after 2 days obs. (Spodoptera frugiperda; 500 g/ha): 0% | Mortality in % after 6 days obs. (Spodoptera frugiperda; 500 g/ha): 33% | Mortality in % after 6 days obs. (Phaedon cochleariae; 20 g/ha): 33%

Spinetoram [B-5.1]
Mortality in % after 2 days obs. (Tetranychus urticae; 0.8 g/ha): 30% | Mortality in % after 6 days obs. (Tetranychus urticae; [10]): 70% | Mortality in % after 2 days obs. (Spodoptera frugiperda; 0.032 g/ha): 0% | Mortality in % after 2 days obs. (Spodoptera frugiperda; 0.8 g/ha): 83% | Mortality in % after 6 days obs. (Phaedon cochleariae; 0.16 g/ha): 0% | Mortality in % after 6 days obs. (Phaedon cochleariae; 0.8 g/ha): 0% | Mortality in % after 6 days obs. (Phaedon cochleariae; 4 g/ha): 0%

Spinosad [B-5.2]
Mortality in % after 2 days obs. (Tetranychus urticae; 0.8 g/ha): 0% | Mortality in % after 6 days obs. (Tetranychus urticae; [10]): 0% | Mortality in % after 2 days obs. (Tetranychus urticae; 4 g/ha): 0% | Mortality in % after 2 days obs. (Tetranychus urticae; 20 g/ha): 0% | Mortality in % after 2 days obs. (Spodoptera frugiperda; 0.16 g/ha): 0% | Mortality in % after 6 days obs. (Phaedon cochleariae; 0.8 g/ha): 0% | Mortality in % after 6 days obs. (Phaedon cochleariae; 4 g/ha): 0% | Mortality in % after 2 days obs. (Phaedon cochleariae; 20 g/ha): 50%

Thiacloprid [B-4A.6]
Mortality in % after 6 days obs. (Tetranychus urticae; [11]): 0% | Mortality in % after 2 days obs. (Tetranychus urticae; 100 g/ha): 0% | Mortality in % after 6 days obs. (Myzus persicae; 0.16 g/ha): 0% | Mortality in % after 1 day obs. (Myzus persicae; 0.8 g/ha): 70% | Mortality in % after 6 days obs. (Myzus persicae; 4 g/ha): 0% | Mortality in % after 6 days obs. (Phaedon cochleariae; 20 g/ha): 83% | Mortality in % after 2 days obs. (Phaedon cochleariae; 100 g/ha): 0%
